Assay results as given in patent US9322032B2, “Arabidopsis ring E3 ubiquitin ligase for promotion of plant germination” (INDUSTRY-ACADEMIC COOPERATION FOUNDATION, YONSEI UNIVERSITY, priority 2011, dated 2016).

Key:
AtAIRP2 gene = AtAIRP2 gene expression by RT-PCR after stress treatment; assay type: in vivo, Arabidopsis thaliana; details: 100 μM ABA, 1.5 hour and 3 hours, 2-week-old wild type seedlings
Description: In order to determine expressions of the AtAIRP2 gene to drought stress, the wild type Arabidopsis thaliana seedlings which were grown on medium for 2 weeks were exposed in the air, and sampled after 1 hour and 2 hours. In order to determine expressions of the AtAIRP2 gene to salt stress, the wild type Arabidopsis thaliana seedlings which were grown on medium for 2 weeks were treated with 300 mM sodium chloride, and sampled after 1.5 hour and 3 hours. In order to determine expressions of the AtAIRP2 gene to low-temperature stress, the wild type Arabidopsis thaliana seedlings which were grown on medium for 2 weeks were incubated at 4° C. for 12 hours and 24 hours, and sampled. […]
The AtAIRP2 gene expressions in various abiotic stresses were analyzed by RT-PCR. […] As a result, it was determined that the gene expression levels of stress treatments were increased than those of non-stress treatments, thereby the AtAIRP2 gene expression is induced by salt, low-temperature, drought and ABA hormone stresses (FIG. 1). In addition, the AtAIRP2 protein expressions in various abiotic stresses were analyzed by histochemical GUS assay. After treatments of ABA hormone (3 hours) and drought (2 hours) stresses, the degree of the staining was analyzed. As a result, it was determined that the degrees of the staining of stress treatments were increased than those of before the stress treatments (FIG. 2).

AtAIRP2 gene promoter = assay: Histochemical GUS assay of AtAIRP2 promoter activity; assay type: in vivo, Arabidopsis thaliana; details: 100 μM ABA, 3 hours
Description: […] After removal of the acetone, the plant was washed 3 times with rincing solution containing 50 mM NaPO4, 1 mM K3Fe(CN)6, and 1 mM K4Fe(CN)6, and immersed in 2 mM X-Gluc (5-bromo-4-chloro-3-indolyl glucuronide, sigma) and vacuumed for 1 min. After staining at 37° C. in the dark until the color was changed, the plant was incubated in 90% ethanol to remove chlorophyll.
The AtAIRP2 gene expressions in various abiotic stresses were analyzed by RT-PCR. After treatments of low-temperature (12 hours and 24 hours), drought (1 hour and 2 hours), salt (1.5 hour and 3 hours) and ABA hormone (1.5 hour and 3 hours) stresses, RNA from each of samples was extracted to analyze the gene expression patterns. As a result, it was determined that the gene expression levels of stress treatments were increased than those of non-stress treatments, thereby the AtAIRP2 gene expression is induced by salt, low-temperature, drought and ABA hormone stresses (FIG. 1). In addition, the AtAIRP2 protein expressions in various abiotic stresses were analyzed by histochemical GUS assay. After treatments of ABA hormone (3 hours) and drought (2 hours) stresses, the degree of the staining was analyzed. As a result, it was determined that the degrees of the staining of stress treatments were increased than those of before the stress treatments (FIG. 2).

E3 ubiquitin ligase = biological target: T1, E3 ubiquitin ligase (Arabidopsis thaliana, UniProt Q9M022); assay: Self-ubiquitination assay (Western blot, anti-MBP and anti-ubiquitin); assay type: biochemical; details: with UBA1, UBC8, ubiquitin, 30° C., 1 hour
T1 construct: the ORF of the AtAIRP2 gene was subcloned into pMAL-X vector in-frame with MBP; made in house; host or cells: Escherichia coli BL21-CodonPlus (DE3) RIL
T1 sequence (Q9M022 1-242): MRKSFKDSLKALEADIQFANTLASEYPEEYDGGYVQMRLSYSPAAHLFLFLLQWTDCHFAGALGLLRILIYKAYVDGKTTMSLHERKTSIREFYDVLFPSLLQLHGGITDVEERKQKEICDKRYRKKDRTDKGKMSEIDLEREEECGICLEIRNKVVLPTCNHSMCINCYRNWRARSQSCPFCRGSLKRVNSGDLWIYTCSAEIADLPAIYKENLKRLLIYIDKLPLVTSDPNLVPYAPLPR
Description: For the enzymatic activity analysis of the AtAIRP2 protein, the ORF of the AtAIRP2 gene was subcloned into pMAL-X vector in-frame with MBP (maltose-binding protein). 40 mM Tris-HCI, pH 7.5, 5 mM MgCl2, 2 mM ATP, 2 mM dithiothreitol (DTT), 300 ng/μL ubiquitin (Sigma), 25 μM MG132 (A.G. Scientific Inc.), 500 ng UBA1 (ABRC, www.arabidopsis.org), 500 ng UBC8 (ABRC, www.arabidopsis.org) and 500 ng MBP-AtAIRP2 were added to each of tubes and incubated at 30° C. After addition of sample buffer solution, the resultant was heated at 100° C. for 5min, and performed by Western blot using anti-MBP (New England Bio Labs) and anti-ubiquitin (Santa Cruz) antibodies.
Maltose-binding protein (MBP) was bound to the AtAIRP2 proteins. Then, the MBP-AtAIRP2 was incubated with UBA1, UBC8, ubiquitin and AtAIRP2 at 30° C. for 1 hour to perform Self-Ubiquitination, and performed by Western blot using MBP- and ubiquitin-specific antibodies to analyze changes in the protein levels. As a result, it was determined that the molecular weight of the AtAIRP2 protein was increased through Western blot using anti-MBP antibody, and the increase was induced due to ubiquitin (FIG. 3).

For `CC1=CC(=O)CC(C)(C)C1(O)/C=C/C(C)=C\C(=O)O` (stereo not drawn) [ABA], the AtAIRP2 gene expression (AtAIRP2 gene) was “induced” and the “GUS signals (AtAIRP2 promoter activity)” value (AtAIRP2 gene promoter) was “markedly induced”.

B1: AtAIRP2 protein: RING protein encoded by At5g01520 (SEQ ID NO:2), tested as maltose-binding protein fusion (protein)
chain: MRKSFKDSLKALEADIQFANTLASEYPEEYDGGYVQMRLSYSPAAHLFLFLLQWTDCHFAGALGLLRILIYKAYVDGKTTMSLHERKTSIREFYDVLFPSLLQLHGGITDVEERKQKEICDKRYRKKDRTDKGKMSEIDLEREEECGICLEIRNKVVLPTCNHSMCINCYRNWRARSQSCPFCRGSLKRVNSGDLWIYTCSAEIADLPAIYKENLKRLLIYIDKLPLVTSDPNLVPYAPLPR
modifications: left off: large carriers
For B1, the “enzymatic activity of E3 ubiquitin ligase” value (E3 ubiquitin ligase) was “possessed ability for enzymatic activity of E3 ubiquitin ligase”.
